Results reported in patent US20250144107A1, “USE OF A PIKFYVE INHIBITOR IN COMBINATION WITH IMMUNOTHERAPY” (The Regents of the University of Michigan, priority 2023, published 2025).

Legend:
[1] = reported, Ikonomov et al. 2019; cited from earlier work
[2] = test system: immune cells enriched from spleens; experiment: Immune cells from spleens of non-tumor-bearing mice; type: in vivo
Procedure: FIG. 13A is a box and whisker plot of relative median fluorescent intensity of surface XCR1 in CD45^+ cells of splenic DCs in PIKfyve inhibitor-treated non-tumor-bearing mice.
FIG. 13B is a box and whisker plot of cDC1 cells from spleens of mice treated with vehicle or apilimod, 30 mg/kg daily, after 5 days of treatment.
FIG. 18A is a series of nine scatter plots of the gating strategy for CD69^+ effector, naïve, terminally differentiated, resident memory, central memory, and exhausted CD8^+ T cells from spleens of non-tumor-bearing mice treated with vehicle or apilimod, 30 mg/kg daily, after 5 days of treatment.
FIG. 18H is a series of nine scatter plots of the gating strategy for FIG. 13A-B and FIG. 18I for myeloid cells and cDCs.

cDCs = experiment: Phenotype of cultured cDCs (flow cytometry, western blot); type: cell-based, mice
Procedure: FIG. 13G (Left) is a line graph of the relative median fluorescent intensity of the surface MHC-I on DMSO or apilimod-treated cDCs treated for 20 hours after 6 days of culture. FIG. 13G (Right) is a box and whisker plot of the surface MHC-I on DMSO or apilimod-treated cDCs treated for 20 hours after 6 days of culture
FIG. 13H a western blot showing the total vinculin, loading control, and total MHC-I in DMSO or apilimod-treated, 20 hours, cDC lysates after 6 days of culture.
FIG. 13K (Left) is a line graph of the relative median fluorescent intensity of the surface MHC-II on DMSO or apilimod-treated, 20 hours, cDCs treated after 6 days of culture. FIG. 13K (Right) is a box and whisker plot of the surface MHC-II on DMSO or apilimod-treated, 20 hours, cDCs treated after 6 days of culture.
FIG. 13L a western blot showing the total vinculin, loading control, and total MHC-II in DMSO or apilimod-treated, 20 hours, cDC lysates after 6 days of culture.
FIG. 13N a western blot showing the total histone H3, loading control, and total CD80 and CD86 in apilimod-treated, 20 hours, PIKfyve WT vs. KO cDC lysates after 6 days of culture.
FIG. 13P is a series of six scatter plots of surface CD80 and CD86 on DMSO or apilimod-treated cDCs, with or without 20 hours of PolyI:C, 50 μg/ml, or lipopolysaccharide (LPS), 50 ng/ml, treatment after 6 days of culture.
FIG. 13R a western blot showing the total vinculin, loading control, and total CD40 in DMSO or apilimod-treated, 20 hours, cDC lysates treated with or without additional LPS, 50 ng/ml, after 6 days of culture day 6.
FIG. 19B is a line graph of representative density plot of median fluorescent intensity of surface XCR1 in DMSO or apilimod-treated, 20 hours, cDCs after 6 days of culture.
FIG. 26G is a line graph of the relative median fluorescent intensity of the surface MHC-I, H2-kb, H2-kd, on DMSO or apilimod-treated cDCs with or without PolyI:C, 50 μg/ml or LPS, 50 ng/ml, treatment, 20 hours, after 6 days of culture.
FIG. 26H is a line graph of the relative median fluorescent intensity of the surface MHC-II, MHC-IA-IE, on DMSO or apilimod-treated cDCs with or without PolyI:C, 50 μg/ml or LPS, 50 ng/ml, treatment, 20 hours, after 6 days of culture.

IL-12 in cDCs = experiment: Il12b RT-qPCR and IL-12 ELISA in cDCs; type: cell-based, mice
Procedure: FIG. 21E is a bar graph comparison of Il12b expression fold change by RT-qPCR in apilimod vs. DMSO-treated, 3 or 12 hours, cDCs after 6 days of culture.
FIG. 21F is a bar graph comparison of IL-12p40 protein levels by ELISA in media from apilimod vs. DMSO-treated, 12 hours, cDCs after 6 days of culture.
FIG. 21G is a bar graph Supp. 5 g Comparison of IL-12p70 protein levels by ELISA in media from apilimod vs. DMSO-treated, 24 hours, cDCs after 6 days of culture.

[3] = test system: subcutaneous B16F10 tumors; experiment: Subcutaneous B16F10 tumor model; type: in vivo, mice
Procedure: FIG. 15D is a line graph of the subcutaneous tumor volume of B16F10 tumors in PIKfyve KO mice or WT mice treated with anti-PD1 antibody, 200 μg every 3 days, or isotype control after 15 days.
FIG. 16D is a line graph of the subcutaneous tumor volume of B16F10 tumors in mice treated with vehicle or apilimod, 30 mg/kg daily, in wild-type or Batf3^−/− mice.
FIG. 26E is a line graph of the subcutaneous tumor volume of B16F10 tumors in mice treated with vehicle or apilimod, 30 mg/kg daily, in NSG™ mice.
FIG. 26F is a line graph of the subcutaneous tumor volume of B16F10 tumors in mice treated with vehicle versus apilimod, 30 mg/kg daily, in NSG™ mice.

[4] = 30 mg/kg daily, 5 days, vs vehicle

For `Cc1cccc(/C=N/Nc2cc(N3CCOCC3)nc(OCCc3ccccn3)n2)c1` [apilimod, N-[(E)-(3-methylphenyl)methylideneamino]-6-morpholin-4-yl-2-(2-pyridin-2-ylethoxy)pyrimidin-4-amine], the stability [1] is listed as “instability”, the “percentage of terminally differentiated, memory or exhausted CD8+ T cells” value [2, 4] is listed as “no changes” and the “proportions of CD69+CD8+ T cells” value [2, 4] is listed as “increased”. For the same molecule, the “total surface expression of CD11c, F4/80, or CD11b” value [2, 4] was “no change”, the “total surface expression of XCR1” value [2, 4] was “increase” and the “relative percentage of cDC1s versus cDC2 cells” value ([2]; within the cDC subset) was “increase”. For the same molecule, the “surface and total protein expression of MHC-II” value (cDCs; 20 hours) was “increased”, the “MHC-I and MHC-II expression” value (cDCs; DCs in vitro, each agent) was “stimulated” and the “CD80 and CD86 expression” value (cDCs; WT DCs, in a dose-dependent manner) was “induced”. For the same molecule, the “total expression of CD40” value (cDCs; added to LPS treatment, vs DMSO) was “increased”, the “CD80+CD86+ cDCs” value (cDCs; alone and in combination with PolyI:C and LPS) was “increase” and the “MHC-I and MHC-II expression” value (cDCs; apilimod added to PolyI:C or LPS) was “further enhanced”. The “surface and total protein expression of MHC-I” value (cDCs; cDCs from WT mice, 20 hours) was “increased”, the “total surface expression of XCR1” value (cDCs; cultured cDCs, 20 hours, vs DMSO) was “increase” and the “secretion of IL-12p40” value (IL-12 in cDCs; ELISA) was “increased”. The “secretion of IL-12p70” value (IL-12 in cDCs; ELISA) was “increased”, the Il12b transcripts (IL-12 in cDCs; RT-qPCR) was “increased” and the “efficacy in Batf3−/− mice” value ([3]; Batf3−/− mice) was “lost”. For the same molecule, the “efficacy in NSG mice” value ([3]; NSG mice) was “lost” and the B16F10 tumor growth ([3]; WT, non-transgenic mice, vs vehicle) was “reduced”.
